Patent publication US20100035932A1, “NOVEL FORMYL PEPTIDE RECEPTOR LIKE 1 AGONISTS THAT INDUCE MACROPHAGE TUMOR NECROSIS FACTOR ALPHA AND COMPUTATIONAL STRUCTURE-ACTIVITY RELATIONSHIP ANALYSIS OF THEREOF” (priority 2008, published 2010)
Like-named read-outs stand apart in the source and are kept apart here.

Columns and labels:
J774.A1 macrophages = assay: TNF-α production in J774.A1 macrophages (ELISA); type: cell-based, murine; conditions: for Determined class of macrophage TNF-α inducing activity: experimentally determined class; for fold induction at 50 µM: Mus musculus, J774.A1, 24 h
human neutrophils = assay: Ca2+ mobilization in human neutrophils (FLIPR Calcium 3); conditions: Neutrophil, read-out: [Ca2+]i EC50
[1] = relative fold of activation compared to vehicle (DMSO) control for 50 μM compound, N.A. = no activity was observed, read-out: TNF-α production
[2] = 50 μM compound, above response to vehicle (DMSO) control, Table 5 numbering, N.A. = inactive, read-out: FI (fold-increase of macrophage TNF-α production)

## 4-fluoro-benzoic acid [5-(3-trifluoromethyl-phenyl)-2-furyl]methylene-hydrazide [Compound 2]
J774.A1 macrophages; 50 μM compound, above response to vehicle (DMSO) control, Table 5 numbering, N.A. = inactive
  FI (fold-increase of macrophage TNF-α production): 60 fold-increase
J774.A1 macrophages
  Determined class of macrophage TNF-α inducing activity: Active

## CCOc1cc(/C=N\NC(=O)c2ccc3c(c2)OCO3)ccc1OC(=O)c1ccc(Br)cc1 [Compound 11]
J774.A1 macrophages; [1]
  fold induction at 50 µM: < 5

## O=C(N/N=C/c1cc(Br)cc(Br)c1OC(=O)c1ccccc1)c1ccc2c(c1)OCO2 [Compound 12]
J774.A1 macrophages; [1]
  fold induction at 50 µM: < 5

## O=C(N/N=C/c1ccc(-c2cccc(C(F)(F)F)c2)o1)c1cccc([N+](=O)[O-])c1 [Compound 13]
J774.A1 macrophages; [1]
  fold induction at 50 µM: < 5

## O=C(N/N=C/c1ccc(-c2ccccc2Cl)o1)c1ccc(Cl)cc1Cl [Compound 14]
J774.A1 macrophages; [1]
  fold induction at 50 µM: < 5

## O=C(N/N=C/c1ccc(-c2cccc(C(F)(F)F)c2)o1)c1cc(I)ccc1Cl [Compound 15]
J774.A1 macrophages; [1]
  fold induction at 50 µM: < 5

## O=C(N/N=C/c1cc(Br)c(Br)o1)c1ccc2c(c1)OCO2 [Compound 16]
J774.A1 macrophages; [1]
  fold induction at 50 µM: < 5

## Nc1ccc(C(=O)N/N=C/c2ccc(-c3ccc([N+](=O)[O-])cc3Cl)o2)cc1 [Compound 22]
J774.A1 macrophages; [1]
  fold induction at 50 µM: < 2

## O=C(N/N=C/c1ccc([N+](=O)[O-])o1)c1cccc([N+](=O)[O-])c1 [Compound 23]
J774.A1 macrophages; read-out: TNF-α production
  fold induction at 50 µM: < 2

## O=C(N/N=C/c1ccc(-c2ccc(Cl)cc2Cl)o1)c1ccc2c(c1)OCO2 [Compound 24]
J774.A1 macrophages; [1]
  fold induction at 50 µM: < 2

## COc1cc(/C=N\NC(=O)c2cccc(C)c2O)ccc1OCc1ccccc1 [Compound 25]
Human neutrophils
  EC50: 0.74 µM

## COc1ccc(C(=O)N/N=C\c2ccc(N(C)C)cc2)cc1 [Compound 26]
Human neutrophils
  EC50: 3 µM

## O=C(N/N=C/c1cc(Br)cc(I)c1O)c1ccc2c(c1)OCCO2 [Compound 27]
Human neutrophils
  EC50: 8 µM

## O=C(N/N=C/c1cc(/N=N\c2cccc(C(F)(F)F)c2)ccc1O)c1ccc2c(c1)OCO2 [Compound 28]
Human neutrophils
  EC50: 8.5 µM

## O=C(N/N=C1\C(=O)N(Cc2cccc3ccccc23)c2ccccc21)c1ccc2c(c1)OCO2 [Compound 29]
Human neutrophils
  EC50: 9.3 µM

## O=C(N/N=C/c1cc(Br)c(Br)o1)c1ccc2c(c1)OCCO2 [Compound 30]
Human neutrophils
  EC50: 9.8 µM

## O=C(/C=C/c1ccco1)Oc1cccc(/C=N/NC(=O)c2ccc3c(c2)OCO3)c1 [Compound 31]
Human neutrophils
  EC50: 12.4 µM

## O=C(N/N=C/c1ccc(-c2ccc(O)c(C(=O)O)c2)o1)c1cccnc1 [Compound 32]
Human neutrophils
  EC50: 12.5 µM

## CN(C)c1ccc(/C=N\NC(=O)c2cccc(F)c2)cc1 [Compound 33]
Human neutrophils
  EC50: 13.1 µM

## CN(C)c1ccc(/C=N/NC(=O)c2ccc3c(c2)OCO3)cc1 [Compound 34]
Human neutrophils
  EC50: 17.9 µM

## Cc1ccc(-c2ccc(/C=N/NC(=O)c3ccncc3)o2)cc1Cl [Compound 51]
J774.A1 macrophages; [2]
  fold induction at 50 µM: 50
J774.A1 macrophages
  Determined class of macrophage TNF-α inducing activity: Active

## O=C(N/N=C/c1ccc(-c2cccc(C(F)(F)F)c2)o1)c1ccc(Br)cc1 [Compound 52]
J774.A1 macrophages; [2]
  fold induction at 50 µM: 35
J774.A1 macrophages
  Determined class of macrophage TNF-α inducing activity: Active

## CN(C)c1ccc(/C=N\NC(=O)c2ccc([N+](=O)[O-])cc2)cc1 [Compound 53]
J774.A1 macrophages; [2]
  fold induction at 50 µM: 25
J774.A1 macrophages
  Determined class of macrophage TNF-α inducing activity: Active

## COc1cc(/C=N\NC(=O)c2ccc3c(c2)OCO3)ccc1OCc1ccccc1 [Compound 54]
J774.A1 macrophages; [2]
  fold induction at 50 µM: 7
J774.A1 macrophages
  Determined class of macrophage TNF-α inducing activity: Active

## O=C(N/N=C/c1ccc(-c2ccc(Cl)c(Cl)c2)o1)c1ccc2c(c1)OCO2 [Compound 55]
J774.A1 macrophages; [2]
  fold induction at 50 µM: < 5
J774.A1 macrophages
  Determined class of macrophage TNF-α inducing activity: Active

## CCOc1cc(/C=N\NC(=O)c2ccc3c(c2)OCO3)ccc1OC(=O)c1ccc(Br)cc1 [Compound 56]
J774.A1 macrophages; [2]
  fold induction at 50 µM: < 5
J774.A1 macrophages
  Determined class of macrophage TNF-α inducing activity: Active

## COc1ccc(-c2ccc(/C=N/NC(=O)c3ccc([N+](=O)[O-])cc3)o2)cc1Cl [Compound 57]
J774.A1 macrophages; [2]
  fold induction at 50 µM: < 5
J774.A1 macrophages
  Determined class of macrophage TNF-α inducing activity: Active

## O=C(N/N=C/c1cc(Br)c(Br)o1)c1ccc2c(c1)OCO2 [Compound 58]
J774.A1 macrophages; [2]
  fold induction at 50 µM: < 5
J774.A1 macrophages
  Determined class of macrophage TNF-α inducing activity: Active

## O=C(/C=C/c1ccco1)Oc1cccc(/C=N/NC(=O)c2ccc3c(c2)OCO3)c1 [Compound 59]
J774.A1 macrophages
  Determined class of macrophage TNF-α inducing activity: NA (inactive derivatives were placed in the nonactive group labeled “NA”)

## COc1cc(/C=N\NC(=O)c2cccc(C)c2O)ccc1OCc1ccccc1 [Compound 60]
J774.A1 macrophages
  Determined class of macrophage TNF-α inducing activity: NA (inactive derivatives were placed in the nonactive group labeled “NA”)

## COc1ccc(C(=O)N/N=C\c2ccc(N(C)C)cc2)cc1 [Compound 61]
J774.A1 macrophages
  Determined class of macrophage TNF-α inducing activity: NA (inactive derivatives were placed in the nonactive group labeled “NA”)

## O=C(N/N=C/c1cc(Br)cc(I)c1O)c1ccc2c(c1)OCCO2 [Compound 62]
J774.A1 macrophages
  Determined class of macrophage TNF-α inducing activity: NA (inactive derivatives were placed in the nonactive group labeled “NA”)

## O=C(N/N=C/c1cc(/N=N\c2cccc(C(F)(F)F)c2)ccc1O)c1ccc2c(c1)OCO2 [Compound 63]
J774.A1 macrophages
  Determined class of macrophage TNF-α inducing activity: NA (inactive derivatives were placed in the nonactive group labeled “NA”)

## O=C(N/N=C1\C(=O)N(Cc2cccc3ccccc23)c2ccccc21)c1ccc2c(c1)OCO2 [Compound 64]
J774.A1 macrophages
  Determined class of macrophage TNF-α inducing activity: NA (inactive derivatives were placed in the nonactive group labeled “NA”)

## O=C(N/N=C/c1cc(Br)c(Br)o1)c1ccc2c(c1)OCCO2 [Compound 65]
J774.A1 macrophages
  Determined class of macrophage TNF-α inducing activity: NA (inactive derivatives were placed in the nonactive group labeled “NA”)

## CN(C)c1ccc(/C=N\NC(=O)c2cccc(F)c2)cc1 [Compound 66]
J774.A1 macrophages
  Determined class of macrophage TNF-α inducing activity: NA (inactive derivatives were placed in the nonactive group labeled “NA”)

## CN(C)c1ccc(/C=N/NC(=O)c2ccc3c(c2)OCO3)cc1 [Compound 67]
J774.A1 macrophages
  Determined class of macrophage TNF-α inducing activity: NA (inactive derivatives were placed in the nonactive group labeled “NA”)

## O=C(N/N=C/c1c(O)ccc2ccccc12)c1ccc2c(c1)OCO2 [Compound 68]
J774.A1 macrophages
  Determined class of macrophage TNF-α inducing activity: NA (inactive derivatives were placed in the nonactive group labeled “NA”)

## COc1ccc(/C=N/NC(=O)c2ccc3c(c2)OCO3)c(OC)c1 [Compound 69]
J774.A1 macrophages
  Determined class of macrophage TNF-α inducing activity: NA (inactive derivatives were placed in the nonactive group labeled “NA”)

## COc1cc(/C=N\NC(=O)c2ccc3c(c2)OCO3)ccc1OC(=O)c1ccco1 [Compound 70]
J774.A1 macrophages
  Determined class of macrophage TNF-α inducing activity: NA (inactive derivatives were placed in the nonactive group labeled “NA”)

## O=C(/C=C\c1ccco1)Oc1ccc(/C=N\NC(=O)c2ccc3c(c2)OCO3)cc1 [Compound 71]
J774.A1 macrophages
  Determined class of macrophage TNF-α inducing activity: NA (inactive derivatives were placed in the nonactive group labeled “NA”)

## O=C(O)COc1ccccc1/C=N/NC(=O)c1ccc2c(c1)OCO2 [Compound 72]
J774.A1 macrophages
  Determined class of macrophage TNF-α inducing activity: NA (inactive derivatives were placed in the nonactive group labeled “NA”)

## CN(C)c1ccc(/C=N\NC(=O)c2ccccc2O)cc1 [Compound 73]
J774.A1 macrophages
  Determined class of macrophage TNF-α inducing activity: NA (inactive derivatives were placed in the nonactive group labeled “NA”)

## O=C(N/N=C/c1cc(/N=N\c2cccc3ccccc23)ccc1O)c1ccc2c(c1)OCO2 [Compound 74]
J774.A1 macrophages
  Determined class of macrophage TNF-α inducing activity: NA (inactive derivatives were placed in the nonactive group labeled “NA”)

## C/C(=N\NC(=O)c1ccc2c(c1)OCO2)c1cccc([N+](=O)[O-])c1 [Compound 75]
J774.A1 macrophages
  Determined class of macrophage TNF-α inducing activity: NA (inactive derivatives were placed in the nonactive group labeled “NA”)

## CC(C)N1C(=O)/C(=N\NC(=O)c2ccc3c(c2)OCO3)c2ccccc21 [Compound 76]
J774.A1 macrophages
  Determined class of macrophage TNF-α inducing activity: NA (inactive derivatives were placed in the nonactive group labeled “NA”)

## CCN1C(=O)/C(=N\NC(=O)c2ccc3c(c2)OCO3)c2ccccc21 [Compound 77]
J774.A1 macrophages
  Determined class of macrophage TNF-α inducing activity: NA (inactive derivatives were placed in the nonactive group labeled “NA”)

## COc1ccc(/C(C)=N/NC(=O)c2ccc3c(c2)OCCO3)cc1[N+](=O)[O-] [Compound 78]
J774.A1 macrophages
  Determined class of macrophage TNF-α inducing activity: NA (inactive derivatives were placed in the nonactive group labeled “NA”)

## COc1ccc(Cl)cc1/C=N/NC(=O)c1ccc2c(c1)OCCO2 [Compound 79]
J774.A1 macrophages
  Determined class of macrophage TNF-α inducing activity: NA (inactive derivatives were placed in the nonactive group labeled “NA”)

## CCOc1ncccc1C(=O)N/N=C/c1ccc([N+](=O)[O-])o1 [Compound 80]
J774.A1 macrophages
  Determined class of macrophage TNF-α inducing activity: NA (inactive derivatives were placed in the nonactive group labeled “NA”)

## O=C(N/N=C/c1ccco1)c1cccnc1 [Compound 81]
J774.A1 macrophages
  Determined class of macrophage TNF-α inducing activity: NA (inactive derivatives were placed in the nonactive group labeled “NA”)

## O=C(N/N=C/c1ccc(-c2ccc(Cl)c([N+](=O)[O-])c2)o1)c1ccc2c(c1)OCO2 [Compound 82]
J774.A1 macrophages
  Determined class of macrophage TNF-α inducing activity: NA (inactive derivatives were placed in the nonactive group labeled “NA”)

## O=C(N/N=C/c1ccc(-c2ccc(Cl)cc2)o1)c1ccncc1 [Compound 83]
J774.A1 macrophages
  Determined class of macrophage TNF-α inducing activity: NA (inactive derivatives were placed in the nonactive group labeled “NA”)

## O=C(N/N=C/c1ccc(-c2ccc(Cl)c(Cl)c2)o1)c1ccncc1 [Compound 84]
J774.A1 macrophages
  Determined class of macrophage TNF-α inducing activity: NA (inactive derivatives were placed in the nonactive group labeled “NA”)

## CCc1ccc(C(=O)N/N=C/c2ccc(-c3ccc(C)c(Cl)c3)o2)nc1 [Compound 85]
J774.A1 macrophages
  Determined class of macrophage TNF-α inducing activity: NA (inactive derivatives were placed in the nonactive group labeled “NA”)

## O=C(N/N=C/c1ccc(-c2cccc(Br)c2)o1)c1ccccn1 [Compound 86]
J774.A1 macrophages
  Determined class of macrophage TNF-α inducing activity: NA (inactive derivatives were placed in the nonactive group labeled “NA”)

## CSCC[C@H](NC=O)C(=O)N[C@@H](CC(C)C)C(=O)N[C@@H](Cc1ccccc1)C(=O)O [fMLF, N-formyl-Met-Leu-Phe, reference compound]
J774.A1 macrophages; 50 μM, 24 hr
  TNF-α production by peptide agonists: failed to induce macrophage TNF-α production
